Source: patent US12564609B2, “Hematopoietic stem cell engraftment with a combination of agents” (The Board of Trustees of the Leland Stanford Junior …, priority 2020, dated 2026)

Assays:
[1] = test system: Lin−Sca1+c-Kit+ cells (LSK); experiment: Annexin V/PI staining of HSPC fractions after AZA in vivo; design: species or system mice; conditions: AZA 1.25, 2.5 and 5 mg/kg/d for 3 days
Experimental: Analysis was performed 24 h after last AZA administration. Gated from LSK. (B) Annexin V+(left) and AnnexinV/PI+(right) cells shown as % from LSK in the three different dose groups as compared to untreated controls. Data were pooled from 2 independent experiments and represent mean±SD (n=4 in the control group and n=7 in the AZA groups). Statistics were calculated Mann-Whitney test (*P<0.05; **P<0.01).
In vivo direct killing by apoptosis was confirmed by flow cytometry using Annexin V/PI to stain the HSPC fractions.

[2] = test system: hematopoietic stem and progenitor cells; experiment: In vivo depletion of blood, spleen and bone marrow cells by AZA; design: species or system C57BL/6 mice; conditions: AZA 5 mg/kg/d for 5 days
Experimental: A. Schematic of treatment protocol. C57BL/6 mice were injected with 5-Azacytidine (AZA) in dose 5 mg/kg/d for 5 consecutive days. Peripheral blood, bone marrow (BM) and spleen were analyzed on days 6, 10 and 15 and 20 after start AZA treatment. B. Peripheral blood cell counts in untreated mice as compared to AZA-treated mice at day 6, 10 and 20 following AZA treatment. Hemoglobin (Hb); white blood cells (WBC). C. Total live cells in bone marrow (BM) and spleen of untreated mice and AZA-treated mice at day 6, 10, 15 and 20 after start AZA treatment. D. Hematoxylin and eosin staining of bone marrow section from mouse femur at day 6 after treatment with AZA 5 mg/kg/d for 5 days as compared to untreated control. Magnification 100 μm. E. Representative flow cytometric analysis of the hematopoietic stem and progenitor cell (HSPC) compartment in the BM of untreated and AZA-treated mice at day 6, 10, 15 and 20. […] Lin^−Sca1^+ c-Kit^+ cells (LSK), multipotent progenitors (MPP), long-term hematopoietic stem cells (LT-HSC), short-term HSC (ST-HSC). F. Absolute number of the different HSPC compartments at day 6, 10, 15 and 20 after start of AZA treatment as compared to untreated control mice. Lin^−Sca1^+c-Kit^+ (LSK); LSKCD150^+CD48^− (LT-HSC), LSKCD150^−CD48^− (ST-HSC), LSKCD150^+CD48^+ (MPP2), LSKCD150^−CD48^+Flt3^− (MPP3), LSKCD150^−CD48^+Flt3^+ (MPP4). Data in (B), (C) and (F) represent mean±SD (n=4 per group per timepoint). Statistics were calculated with Mann-Whitney test (*P<0.05).
Mice. C57BL/6 (B6) mice (H-2^b, Thy1.1, CD45.1/CD45.2) were recipients and B6 mice (H-2^b, Thy1.1, CD45.1) were donors for the congenic transplant experiments. BALB.B (H-2^b, Thy1.2, CD45.2) mice were used as recipients and B6 mice (H-2^b, Thy1.1, CD45.1) as donors for […] (allogeneic) transplant experiments. Recipients were >8 weeks old and donors were 8-12 weeks old at timepoint of transplantation. B6 (H-2^b, Thy1.1, CD45.2) mice were used for in vivo depletion studies. Mice were bred and maintained under pathogen free conditions at the Stanford University Research Animal Facility. All experiments were performed under a protocol approved by the Stanford Administrative Panel on Laboratory Animal Care.
In vivo administration of therapeutic agents and cytokines. Anti-mouse CD117 mAbs, clone ACK2 (BioXcell) and 2B8 (BioXcell), were injected retroorbital as a single dose of 500 μg following intraperitoneal administration of Diphenhydramine (Benadryl). Anti CD4 (clone GK1.5, BioXcell) and anti-CD8 (clone YTS169.4, BioXcell) were administered intraperitoneally at a dose of 100 μg in 100 μl phosphate-buffered saline (PBS). […] Before each injection, AZA was thawed for 10-15 min at room temperature (RT), resuspended in PBS and administered intraperitoneally in 100 μl. Recombinant murine SCF (PeproTech), dissolved in deionized water to concentration of 10 μg/ml, was injected intraperitoneally at the amount of 1 μg/day.
Flow cytometry. Cells were stained for surface markers and incubated at RT in the dark for 20 min.
Bone marrow and spleen cell preparation for analysis. Mice were euthanized and bone marrow (hips, femurs, tibia, spine) and spleen were harvested. Bones were crushed in PBS+2% bovine calf serum (BCS) into single cell suspensions and filtered through 70-μm filter (Falcon). Spleens were mashed direct in 70-μm filter (Falcon). RBC lysis was performed with ACK lysis buffer for 10 min at RT. Cells were rinsed, filtered again and counted on a Countess automated cell counter (Invitrogen).
Complete blood cell count. 20 μl of whole blood was collected via the tail vein and complete blood counts (CBC) were conducted using Heska HemaTrue Veterinary Hematology Analyzer (Heska).

[3] = patients, subcutaneous administration of 75 mg/m^2 AZA, plasma; cited from earlier work

## Nc1ncn([C@@H]2O[C@H](CO)[C@@H](O)[C@H]2O)c(=O)n1 [AZA, 5-Azacytidine]
[1]
  apoptosis and apoptotic cell death in the HSPC compartment: dose dependent
[2]
  rebound of splenic myeloid cells to normal levels: ≤ 10 days
  recovery of BM B cells: > 15 days
  recovery of all blood subsets to normal range values: ≤ 20 days
  recovery of overall BM cellularity: ≤ 10 days
  recovery of the ST-HSC fraction in BM: > 20 days
[2]; BM
  nadir of MPP4 and common lymphoid progenitors (CLP): 10 days
  recovery of CMP and GMP: > 15 days
  recovery of MEP: ≤ 10 days
  recovery of MPP4 and CLP: ≤ 20 days
[2]; by day 6
  myeloid-biased multipotent progenitors MPP2 and MPP3 after BM depletion of HSC: rapid expansion
[2]; by day 6, BM
  depletion of common myeloid progenitors (CMP): > 25 fold
  depletion of granulocyte-macrophage progenitors (GMP): > 18 fold
  depletion of megakaryocyte-erythrocyte progenitors (MEP): > 11 fold
[2]; day 6
  reduction of LT-HSC in BM at nadir: 15 fold
  reduction of ST-HSC in BM at nadir: 24 fold
  splenic myeloid cells: significantly reduced
[2]; day 6, p value=0.0286
  overall BM cellularity decreased: 80 % from baseline
[2]; day 10
  maximal B cell (CD19) depletion in BM: > 30 fold
[2]; days 6, 10, 15 and 20
  B-cell development in the bone marrow (Hardy fractions): maturation block at Fraction D and E
[2]; peripheral blood
  reduction of granulocytes in blood: ~4 fold
[2]; days after initiation of AZA
  day of lowest blood values (Hb, WBC, granulocytes, lymphocytes, monocytes): 10 days
[3]
  Cmax: 750 ± 403.3 ng/mL
